Reference: the kinase profiling compilation of Christmann-Franck et al. (2016)

Tests used:
Experiment in all cases: KINOMEscan competition binding
Conditions in all cases: compound 10.0 µM
OXSR1 (human) = OXSR1 (human) (UniProt O95747)
STK17B (human) = STK17B (human) (UniProt O94768)
ACVR2B (human) = ACVR2B (human) (UniProt Q13705)
CSNK1G3 (human) = CSNK1G3 (human) (UniProt Q9Y6M4)
DCLK3 (human) = DCLK3 (human) (UniProt Q9C098)
BRAF (human) = BRAF (human) (UniProt P15056)
AURKC (human) = AURKC (human) (UniProt Q9UQB9)
MYLK (human) = MYLK (human) (UniProt Q15746)
CSNK1D (human) = CSNK1D (human) (UniProt P48730)
NTRK2 (human) = NTRK2 (human) (UniProt Q16620)
CDK7 (human) = CDK7 (human) (UniProt P50613)
ADCK4 (human) = ADCK4 (human) (UniProt Q96D53)
AURKA (human) = AURKA (human) (UniProt O14965)
STK39 (human) = STK39 (human) (UniProt Q9UEW8)
SRC (human) = SRC (human) (UniProt P12931)
MAP4K2 (human) = MAP4K2 (human) (UniProt Q12851)
PI4KB (human) = PI4KB (human) (UniProt Q9UBF8)
[1] = tested on: ABL1 (human), P00519 [H396P]
ERBB3 (human) = ERBB3 (human) (UniProt P21860)
PRKX (human) = PRKX (human) (UniProt P51817)
[2] = target: JAK1 JH2 pseudokinase (human) (UniProt P23458)
RAF1 (human) = RAF1 (human) (UniProt P04049)
EPHA5 (human) = EPHA5 (human) (UniProt P54756)
CSNK2A2 (human) = CSNK2A2 (human) (UniProt P19784)
ACVRL1 (human) = ACVRL1 (human) (UniProt P37023)
ABL1 (human) = ABL1 (human) (UniProt P00519)
MAP4K1 (human) = MAP4K1 (human) (UniProt Q92918)
CDKL5 (human) = CDKL5 (human) (UniProt O76039)
[3] = tested on: RET (human), P07949 [V804M]
MAPKAPK5 (human) = MAPKAPK5 (human) (UniProt Q8IW41)
CLK4 (human) = CLK4 (human) (UniProt Q9HAZ1)

RET (human), P07949 [V804M], sequence (P07949 whole entry V804M, looked up): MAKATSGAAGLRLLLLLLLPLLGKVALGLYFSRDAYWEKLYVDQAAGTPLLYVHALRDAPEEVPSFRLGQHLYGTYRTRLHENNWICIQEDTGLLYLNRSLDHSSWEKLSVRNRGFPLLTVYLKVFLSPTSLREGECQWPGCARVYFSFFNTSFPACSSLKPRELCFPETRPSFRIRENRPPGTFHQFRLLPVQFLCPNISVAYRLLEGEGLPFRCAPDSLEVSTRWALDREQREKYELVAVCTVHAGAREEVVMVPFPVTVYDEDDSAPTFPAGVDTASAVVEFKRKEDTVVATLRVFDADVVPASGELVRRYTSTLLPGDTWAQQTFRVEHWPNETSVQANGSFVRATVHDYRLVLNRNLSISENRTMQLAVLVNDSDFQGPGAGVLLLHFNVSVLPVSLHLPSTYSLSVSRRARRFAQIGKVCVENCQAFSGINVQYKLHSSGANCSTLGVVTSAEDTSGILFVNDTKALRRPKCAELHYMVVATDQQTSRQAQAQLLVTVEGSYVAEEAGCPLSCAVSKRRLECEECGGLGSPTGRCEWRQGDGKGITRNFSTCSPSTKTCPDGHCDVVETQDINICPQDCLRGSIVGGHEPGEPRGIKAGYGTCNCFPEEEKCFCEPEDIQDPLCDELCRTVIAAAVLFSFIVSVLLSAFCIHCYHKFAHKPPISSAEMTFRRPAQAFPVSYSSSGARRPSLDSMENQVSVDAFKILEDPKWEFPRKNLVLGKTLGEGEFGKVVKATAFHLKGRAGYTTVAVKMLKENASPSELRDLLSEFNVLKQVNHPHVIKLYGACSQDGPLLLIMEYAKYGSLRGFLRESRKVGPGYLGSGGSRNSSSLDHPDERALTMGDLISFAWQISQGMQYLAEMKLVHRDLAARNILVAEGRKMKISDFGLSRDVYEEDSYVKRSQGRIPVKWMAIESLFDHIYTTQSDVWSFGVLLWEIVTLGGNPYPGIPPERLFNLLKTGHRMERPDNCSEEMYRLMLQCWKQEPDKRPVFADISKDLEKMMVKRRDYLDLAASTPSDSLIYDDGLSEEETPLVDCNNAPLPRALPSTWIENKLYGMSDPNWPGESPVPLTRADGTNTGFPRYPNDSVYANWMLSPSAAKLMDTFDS
ERBB3 (human), sequence (P21860 whole entry, looked up): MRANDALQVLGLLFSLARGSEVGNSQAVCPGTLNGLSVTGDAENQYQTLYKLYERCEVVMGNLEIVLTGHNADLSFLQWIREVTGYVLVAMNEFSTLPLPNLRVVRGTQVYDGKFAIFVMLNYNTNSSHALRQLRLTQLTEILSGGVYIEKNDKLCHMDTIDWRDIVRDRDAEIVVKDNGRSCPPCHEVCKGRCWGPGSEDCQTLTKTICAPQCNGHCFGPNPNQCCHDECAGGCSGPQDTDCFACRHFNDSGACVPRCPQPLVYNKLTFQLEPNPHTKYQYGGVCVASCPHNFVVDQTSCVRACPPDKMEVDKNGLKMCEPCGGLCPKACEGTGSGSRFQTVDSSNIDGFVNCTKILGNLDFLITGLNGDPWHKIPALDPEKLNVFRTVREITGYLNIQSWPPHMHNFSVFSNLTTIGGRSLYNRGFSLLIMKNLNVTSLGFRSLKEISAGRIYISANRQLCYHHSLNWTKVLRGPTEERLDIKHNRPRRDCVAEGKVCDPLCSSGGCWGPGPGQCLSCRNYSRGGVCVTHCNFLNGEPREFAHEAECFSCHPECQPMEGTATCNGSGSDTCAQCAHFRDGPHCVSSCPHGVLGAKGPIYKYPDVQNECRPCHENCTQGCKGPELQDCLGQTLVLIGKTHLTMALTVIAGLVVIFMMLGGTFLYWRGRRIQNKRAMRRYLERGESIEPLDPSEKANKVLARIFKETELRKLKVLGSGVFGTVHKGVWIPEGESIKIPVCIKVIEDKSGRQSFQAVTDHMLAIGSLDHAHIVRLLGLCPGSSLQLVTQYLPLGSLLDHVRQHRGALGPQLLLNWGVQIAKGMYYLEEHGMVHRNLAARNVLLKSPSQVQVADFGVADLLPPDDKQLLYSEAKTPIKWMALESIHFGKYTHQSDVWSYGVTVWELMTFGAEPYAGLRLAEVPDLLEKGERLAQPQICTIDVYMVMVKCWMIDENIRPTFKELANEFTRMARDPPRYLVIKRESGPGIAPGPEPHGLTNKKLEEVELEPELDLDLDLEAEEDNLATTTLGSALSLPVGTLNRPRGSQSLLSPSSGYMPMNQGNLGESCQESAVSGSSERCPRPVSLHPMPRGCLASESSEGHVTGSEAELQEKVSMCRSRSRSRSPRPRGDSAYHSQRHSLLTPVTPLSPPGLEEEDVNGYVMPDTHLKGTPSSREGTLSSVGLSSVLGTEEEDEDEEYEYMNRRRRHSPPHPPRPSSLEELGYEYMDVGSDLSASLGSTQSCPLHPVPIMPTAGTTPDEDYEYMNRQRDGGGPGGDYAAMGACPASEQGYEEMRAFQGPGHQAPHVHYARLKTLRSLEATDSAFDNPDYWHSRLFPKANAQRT
CDKL5 (human), sequence (O76039 whole entry, looked up): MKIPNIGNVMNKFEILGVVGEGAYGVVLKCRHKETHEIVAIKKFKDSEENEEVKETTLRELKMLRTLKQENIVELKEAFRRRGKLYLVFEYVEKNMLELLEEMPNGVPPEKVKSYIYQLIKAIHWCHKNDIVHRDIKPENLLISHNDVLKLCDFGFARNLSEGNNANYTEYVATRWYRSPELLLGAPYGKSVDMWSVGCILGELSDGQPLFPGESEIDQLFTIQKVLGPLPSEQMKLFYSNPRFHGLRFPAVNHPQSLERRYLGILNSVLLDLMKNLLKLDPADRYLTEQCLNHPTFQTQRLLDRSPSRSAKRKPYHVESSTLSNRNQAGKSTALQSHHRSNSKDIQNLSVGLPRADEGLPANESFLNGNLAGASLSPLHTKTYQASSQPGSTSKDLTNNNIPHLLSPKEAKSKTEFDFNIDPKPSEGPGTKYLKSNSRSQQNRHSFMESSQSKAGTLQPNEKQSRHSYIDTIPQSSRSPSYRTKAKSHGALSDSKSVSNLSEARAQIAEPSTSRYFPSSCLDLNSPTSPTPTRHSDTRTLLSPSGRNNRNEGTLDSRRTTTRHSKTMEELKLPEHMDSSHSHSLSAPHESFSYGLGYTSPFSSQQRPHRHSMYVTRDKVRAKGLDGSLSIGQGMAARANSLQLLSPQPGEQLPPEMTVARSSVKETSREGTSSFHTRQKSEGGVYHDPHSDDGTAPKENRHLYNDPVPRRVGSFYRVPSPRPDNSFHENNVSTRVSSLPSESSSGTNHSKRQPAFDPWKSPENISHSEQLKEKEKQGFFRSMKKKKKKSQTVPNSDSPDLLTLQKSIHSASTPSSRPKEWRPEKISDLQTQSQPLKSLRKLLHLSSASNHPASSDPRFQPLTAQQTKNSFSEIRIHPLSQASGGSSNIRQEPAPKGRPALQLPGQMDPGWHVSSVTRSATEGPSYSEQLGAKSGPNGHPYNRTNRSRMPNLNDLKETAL
NTRK2 (human), sequence (Q16620 whole entry, looked up): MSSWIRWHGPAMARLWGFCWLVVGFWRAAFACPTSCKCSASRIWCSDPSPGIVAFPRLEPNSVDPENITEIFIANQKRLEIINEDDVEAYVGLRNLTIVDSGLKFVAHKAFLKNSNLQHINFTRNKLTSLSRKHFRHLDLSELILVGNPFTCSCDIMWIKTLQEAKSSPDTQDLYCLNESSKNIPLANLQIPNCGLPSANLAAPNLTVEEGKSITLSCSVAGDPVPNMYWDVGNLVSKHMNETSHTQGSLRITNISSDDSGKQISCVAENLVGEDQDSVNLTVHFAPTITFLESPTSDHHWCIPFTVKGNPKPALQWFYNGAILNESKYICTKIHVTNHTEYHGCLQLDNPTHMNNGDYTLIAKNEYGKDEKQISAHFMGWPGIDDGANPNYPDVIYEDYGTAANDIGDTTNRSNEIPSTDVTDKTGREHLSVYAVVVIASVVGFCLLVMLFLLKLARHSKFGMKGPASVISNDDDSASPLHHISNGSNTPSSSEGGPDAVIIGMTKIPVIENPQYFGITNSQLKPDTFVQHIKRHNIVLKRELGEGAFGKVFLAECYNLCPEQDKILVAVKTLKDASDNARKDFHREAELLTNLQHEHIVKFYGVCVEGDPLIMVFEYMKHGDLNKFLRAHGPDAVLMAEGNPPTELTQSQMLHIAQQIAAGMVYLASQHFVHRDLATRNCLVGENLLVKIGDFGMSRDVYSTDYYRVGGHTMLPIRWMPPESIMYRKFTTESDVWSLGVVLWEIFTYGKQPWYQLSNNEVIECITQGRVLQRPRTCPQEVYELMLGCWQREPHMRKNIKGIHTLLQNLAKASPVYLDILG
SRC (human), sequence (P12931 whole entry, looked up): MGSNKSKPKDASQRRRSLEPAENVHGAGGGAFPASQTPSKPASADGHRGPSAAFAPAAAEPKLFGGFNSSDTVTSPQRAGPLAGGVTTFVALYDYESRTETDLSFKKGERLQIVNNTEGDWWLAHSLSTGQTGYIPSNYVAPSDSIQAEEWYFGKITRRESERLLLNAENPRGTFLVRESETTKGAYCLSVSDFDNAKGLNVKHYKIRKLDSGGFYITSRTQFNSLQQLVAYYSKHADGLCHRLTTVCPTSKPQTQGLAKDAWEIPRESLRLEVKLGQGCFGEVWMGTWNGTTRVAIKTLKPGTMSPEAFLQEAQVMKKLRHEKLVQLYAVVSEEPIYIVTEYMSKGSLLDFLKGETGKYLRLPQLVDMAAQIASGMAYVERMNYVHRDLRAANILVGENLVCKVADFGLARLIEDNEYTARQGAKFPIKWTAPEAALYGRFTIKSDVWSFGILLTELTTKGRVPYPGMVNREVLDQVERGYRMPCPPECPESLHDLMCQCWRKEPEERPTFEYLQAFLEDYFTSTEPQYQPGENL
AURKC (human), sequence (Q9UQB9 whole entry, looked up): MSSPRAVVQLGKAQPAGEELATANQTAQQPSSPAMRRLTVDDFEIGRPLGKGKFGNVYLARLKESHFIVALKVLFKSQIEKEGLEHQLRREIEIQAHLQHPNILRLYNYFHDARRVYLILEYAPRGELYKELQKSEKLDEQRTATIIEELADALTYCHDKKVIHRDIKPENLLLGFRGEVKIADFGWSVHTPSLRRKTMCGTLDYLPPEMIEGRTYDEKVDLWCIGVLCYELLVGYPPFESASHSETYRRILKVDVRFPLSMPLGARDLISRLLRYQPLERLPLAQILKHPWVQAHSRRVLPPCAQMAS

| kinase still bound, per cent of control (STK17B (human)) [%] | kinase still bound, per cent of control (ACVR2B (human)) [%] | kinase still bound, per cent of control (CSNK1G3 (human)) [%] | kinase still bound, per cent of control (DCLK3 (human)) [%] | kinase still bound, per cent of control (AURKC (human)) [%] | kinase still bound, per cent of control (MYLK (human)) [%] | kinase still bound, per cent of control (NTRK2 (human)) [%] | kinase still bound, per cent of control (CDK7 (human)) [%] | kinase still bound, per cent of control (ADCK4 (human)) [%] | kinase still bound, per cent of control (AURKA (human)) [%] | kinase still bound, per cent of control (SRC (human)) [%] | kinase still bound, per cent of control [1] [%] | kinase still bound, per cent of control (PRKX (human)) [%] | kinase still bound, per cent of control [2] [%] | kinase still bound, per cent of control (RAF1 (human)) [%] | kinase still bound, per cent of control (EPHA5 (human)) [%] | kinase still bound, per cent of control (CSNK2A2 (human)) [%] | kinase still bound, per cent of control (ACVRL1 (human)) [%] | kinase still bound, per cent of control (ABL1 (human)) [%] | kinase still bound, per cent of control (MAP4K1 (human)) [%] | SMILES | other results |
| --- | --- | --- | --- | --- | --- | --- | --- | --- | --- | --- | --- | --- | --- | --- | --- | --- | --- | --- | --- | --- | --- |
| 100 | 100 | 100 | 100 | 100 | 100 | 100 | 100 | 100 | 100 | 100 | 100 | 100 | 100 | 100 | 100 | 100 | 100 | 100 | 100 | CS(=O)(=O)N1CCN(Cc2cc3nc(-c4cccc5[nH]ncc45)nc(N4CCOCC4)c3s2)CC1 | kinase still bound, per cent of control (OXSR1 (human)): 100%; kinase still bound, per cent of control (BRAF (human)): 100%; kinase still bound, per cent of control (CSNK1D (human)): 100%; kinase still bound, per cent of control (STK39 (human)): 100%; kinase still bound, per cent of control (MAP4K2 (human)): 100%; kinase still bound, per cent of control (PI4KB (human)): 100%; kinase still bound, per cent of control (ERBB3 (human)): 100%; kinase still bound, per cent of control (CDKL5 (human)): 100%; kinase still bound, per cent of control [3]: 100%; kinase still bound, per cent of control (MAPKAPK5 (human)): 100% |
| 100 | 100 | 100 | 100 | 100 | 100 | 100 | 100 | 100 | 100 | 100 | 100 | 100 | 100 | 100 | 100 | 100 | 100 | 100 | 100 | CCN(CC)CCCCNc1ncc2c(n1)N(C)C(=O)N(c1c(Cl)c(OC)cc(OC)c1Cl)C2 | kinase still bound, per cent of control (CLK4 (human)): 100%; kinase still bound, per cent of control (OXSR1 (human)): 100%; kinase still bound, per cent of control (CSNK1D (human)): 100%; kinase still bound, per cent of control (STK39 (human)): 100%; kinase still bound, per cent of control (MAP4K2 (human)): 100%; kinase still bound, per cent of control (PI4KB (human)): 100%; kinase still bound, per cent of control (ERBB3 (human)): 100%; kinase still bound, per cent of control (CDKL5 (human)): 100%; kinase still bound, per cent of control [3]: 100%; kinase still bound, per cent of control (MAPKAPK5 (human)): 100% |
| 100 | 100 | 100 | 100 | 100 | 100 | 100 | 100 | 100 | 100 | 100 | 100 | 100 | 100 | 100 | 100 | 100 | 100 | 100 | 100 | CCN(CC)CCCCNc1ncc2cc(-c3cc(OC)cc(OC)c3)c(NC(=O)NC(C)(C)C)nc2n1 | kinase still bound, per cent of control (CLK4 (human)): 100%; kinase still bound, per cent of control (BRAF (human)): 100%; kinase still bound, per cent of control (CSNK1D (human)): 100%; kinase still bound, per cent of control (MAPKAPK5 (human)): 100% |
| 100 | 100 | 100 | 16 | 100 | 13 | 100 | 100 | 100 | 100 | 100 | 100 | 100 | 100 | 100 | 100 | 100 | 100 | 100 | 100 | COc1cc(N2CCN(C)CC2)ccc1Nc1ncc2c(n1)N(C)c1ccccc1C(=O)N2C | kinase still bound, per cent of control (CLK4 (human)): 100%; kinase still bound, per cent of control (OXSR1 (human)): 100%; kinase still bound, per cent of control (BRAF (human)): 100%; kinase still bound, per cent of control (CSNK1D (human)): 100%; kinase still bound, per cent of control (STK39 (human)): 23%; kinase still bound, per cent of control (MAP4K2 (human)): 100%; kinase still bound, per cent of control (PI4KB (human)): 100%; kinase still bound, per cent of control (ERBB3 (human)): 100%; kinase still bound, per cent of control (CDKL5 (human)): 100%; kinase still bound, per cent of control [3]: 100%; kinase still bound, per cent of control (MAPKAPK5 (human)): 100% |
| 100 | 100 | 100 | 100 | 100 | 100 | 100 | 100 | 100 | 100 | 6.6 | 20 | 100 | 100 | 100 | 100 | 100 | 100 | 16 | 16 | C=CC(=O)Nc1ccc(CN(C(=O)Nc2c(Cl)c(OC)cc(OC)c2Cl)c2cc(Nc3ccc(N4CCN(C)CC4)cc3)ncn2)cc1 | kinase still bound, per cent of control (CLK4 (human)): 100%; kinase still bound, per cent of control (BRAF (human)): 100%; kinase still bound, per cent of control (CSNK1D (human)): 100%; kinase still bound, per cent of control (MAP4K2 (human)): 100%; kinase still bound, per cent of control [3]: 100%; kinase still bound, per cent of control (MAPKAPK5 (human)): 100% |

| SMILES | kinase still bound, per cent of control (STK17B (human)) [%] | kinase still bound, per cent of control (ACVR2B (human)) [%] | kinase still bound, per cent of control (CSNK1G3 (human)) [%] | kinase still bound, per cent of control (DCLK3 (human)) [%] | kinase still bound, per cent of control (AURKC (human)) [%] | kinase still bound, per cent of control (MYLK (human)) [%] | kinase still bound, per cent of control (NTRK2 (human)) [%] | kinase still bound, per cent of control (CDK7 (human)) [%] | kinase still bound, per cent of control (ADCK4 (human)) [%] | kinase still bound, per cent of control (AURKA (human)) [%] | kinase still bound, per cent of control (SRC (human)) [%] | kinase still bound, per cent of control [1] [%] | kinase still bound, per cent of control (PRKX (human)) [%] | kinase still bound, per cent of control [2] [%] | kinase still bound, per cent of control (RAF1 (human)) [%] | kinase still bound, per cent of control (EPHA5 (human)) [%] | kinase still bound, per cent of control (CSNK2A2 (human)) [%] | kinase still bound, per cent of control (ACVRL1 (human)) [%] | kinase still bound, per cent of control (ABL1 (human)) [%] | kinase still bound, per cent of control (MAP4K1 (human)) [%] | other results |
| --- | --- | --- | --- | --- | --- | --- | --- | --- | --- | --- | --- | --- | --- | --- | --- | --- | --- | --- | --- | --- | --- |
| Cc1n[nH]c2ccc(-c3cncc(OC[C@@H](N)Cc4c[nH]c5ccccc45)c3)cc12 | 20 | 100 | 0.15 | 2 | 34 | 0.1 | 100 | 0.3 | 100 | 100 | 100 | 100 | 12 | 100 | 100 | 100 | 13 | 100 | 100 | 23 | kinase still bound, per cent of control (CLK4 (human)): 2.6%; kinase still bound, per cent of control (BRAF (human)): 100%; kinase still bound, per cent of control (MAP4K2 (human)): 8.8%; kinase still bound, per cent of control [3]: 10%; kinase still bound, per cent of control (MAPKAPK5 (human)): 100% |
